These results are taken from ChEMBL document CHEMBL1201862, “PubChem BioAssay data set” (2004).

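Grown in 96-well plates, cells were treated for 48 hours with each compound at five concentrations. Insufficient inhibition: endpoint recorded as highest concentration tested. Abbreviation: GI50, concentration required for 50% inhibition of growth.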 Activity calls are given as the source filed them. Rule as the data show it: active = GI50 up to about 1.1 µM and inactive = higher.

Some test systems named below: 786-0; A498; HCT-116; HCT-15; HL-60; HOP-92; MCF7; Malme-3M; OVCAR-3; OVCAR-4; OVCAR-5; SF-295; SK-MEL-28; SN12C; SNB-19; UACC-257; UACC-62; UO-31; SR.
Experiment in all cases: NCI tumour cell line growth inhibition, 48 h

On to `O=C1C=C(c2c(O)ccc3ccccc23)c2ccccc2C1=O`, for which the GI50 in the test on 786-0 was 2.15 µM (inactive); with A498 it was 8.51 µM (inactive); with HCT-116 it was 2.15 µM (inactive); in the test with HCT-15, 3.57 µM; with HL-60 it was 2.65 µM (inactive); in the test on HOP-92, 2.22 µM (inactive). Also, the GI50 with MCF7 was < 0.01 µM (active); in the test on Malme-3M it was 5.2 µM (inactive); in the test with OVCAR-3, 2.32 µM (inactive); in the test on OVCAR-4 it was 1.92 µM (inactive); in the test on OVCAR-5, 10.7 µM (inactive); with SF-295, 4.19 µM (inactive). Also, the GI50 in the test on SK-MEL-28 was 9.95 µM (inactive); in the test with SN12C, 2.58 µM (inactive); in the test with SNB-19, 5.96 µM (inactive); in the test on UACC-257, 2.39 µM (inactive); with UACC-62, 2.35 µM (inactive); in the test with UO-31, 2.24 µM (inactive).
Turning to `CCOC(=O)C1=C(O)C(=O)c2ccccc2C1=O`, the GI50 in the test with 786-0 was > 100 µM (inactive); with A498 it was > 100 µM (inactive); in the test with HCT-116 it was > 100 µM (inactive); with HCT-15 it was above 100 µM; with HL-60, > 100 µM (inactive); in the test with HOP-92, > 100 µM (inactive). Further, the GI50 was 50.6 µM (inactive) in the test on Malme-3M; > 100 µM (inactive) in the test with OVCAR-3; > 100 µM (inactive) with OVCAR-4; > 100 µM (inactive) with OVCAR-5; 96.6 µM (inactive) with SF-295; > 100 µM (inactive) with SK-MEL-28. The GI50 is > 100 µM (inactive) in the test with SN12C; 40.9 µM (inactive) with SNB-19; > 100 µM (inactive) with SR; > 100 µM (inactive) with UACC-257; 48 µM (inactive) in the test on UACC-62; > 100 µM (inactive) in the test with UO-31.
For `COc1cccc2c1C(=O)c1c(O)c3c(c(O)c1C2=O)C[C@@](O)(C(=O)CN1CCOCC1)C[C@@H]3OC1CC(N)C(O)C(C)O1` (stereo partly drawn), the GI50 with A498 was 8.55 µM (inactive); in the test with HCT-116, 1.89 µM (inactive); in the test on HCT-15, 12.4 µM; with HL-60, 0.895 µM (active); in the test with MCF7, 0.938 µM (active); in the test with Malme-3M, 3.27 µM (inactive). In addition, the GI50 in the test with OVCAR-3 was 0.000912 µM (active); in the test on OVCAR-4, 9.53 µM (inactive); in the test on OVCAR-5, 12.4 µM (inactive); in the test with SF-295 it was 3.72 µM (inactive); in the test on SK-MEL-28, 12.2 µM (inactive); in the test with SN12C it was 2.4 µM (inactive). Besides, the GI50 is 2.62 µM (inactive) with SNB-19, 0.000769 µM (active) in the test with UACC-257, 3.58 µM (inactive) with UACC-62 and 19 µM (inactive) in the test on UO-31.
Turning to `CC(C)(C)OC/C=C(/CO)[C@@H]1C=C[C@H](O)C1`, the GI50 in the test on 786-0 was > 100 µM (inactive); in the test with A498, > 100 µM (inactive); in the test on HCT-116, > 100 µM (inactive); in the test on HCT-15 it was above 100 µM; with MCF7, > 100 µM (inactive); in the test with Malme-3M, > 100 µM (inactive). Also, the GI50 in the test with OVCAR-3, in the test with OVCAR-4, with OVCAR-5, in the test on SF-295, in the test with SK-MEL-28 and in the test with SN12C was > 100 µM (inactive) throughout. Also, the GI50 in the test on SNB-19, in the test on UACC-257, in the test with UACC-62 and in the test with UO-31 was > 100 µM (inactive) each time.
In the case of `O=C1C2=C(C3=NCCc4c[nH]c1c43)c1c(cc(Br)c(O)c1Br)CCN2`, the GI50 in the test on A498 was 20.2 µM (inactive); in the test on HCT-116 it was 14.5 µM (inactive); in the test with HCT-15 it was 11.5 µM; in the test on HL-60, 3.48 µM (inactive); in the test on HOP-92, 20.6 µM (inactive); with MCF7, 7.69 µM (inactive). Besides, the GI50 with OVCAR-3 is 2.73 µM (inactive); in the test with OVCAR-4, 11 µM (inactive); with OVCAR-5 it was 25.2 µM (inactive); with SF-295 it was 7.13 µM (inactive); in the test with SK-MEL-28, 17.2 µM (inactive); in the test on SN12C it was 14.1 µM (inactive). Also, the GI50 in the test on SNB-19 is 17.9 µM (inactive); in the test with UACC-257 it was 7.5 µM (inactive); in the test with UACC-62 it was 3.47 µM (inactive); with UO-31 it was 18.2 µM (inactive).
In the case of `CC(=O)Nc1ccc(SC#N)c2c(NC(C)=O)cccc12`, the GI50 is > 100 µM (inactive) in the test with 786-0; > 100 µM (inactive) with A498; > 86.3 µM (inactive) with HCT-116; 53.8 µM in the test with HCT-15; 24.1 µM (inactive) in the test with HL-60; 50.7 µM (inactive) in the test on HOP-92. Also, the GI50 with Malme-3M was > 100 µM (inactive); with OVCAR-3, 89.9 µM (inactive); in the test with OVCAR-4, > 92.9 µM (inactive); in the test on OVCAR-5, > 100 µM (inactive); in the test with SF-295, > 100 µM (inactive); in the test with SK-MEL-28 it was 84.3 µM (inactive). Also, the GI50 in the test on SN12C was > 100 µM (inactive); in the test with SNB-19, > 100 µM (inactive); in the test on SR, 33.6 µM (inactive); in the test on UACC-257 it was > 100 µM (inactive); in the test with UACC-62, 78.3 µM (inactive); in the test with UO-31, > 95.5 µM (inactive).
For `C[C@]12CCC(=O)C(O)=C1CCC2=O`, the GI50 in the test on 786-0 is > 100 µM (inactive); in the test with A498, > 100 µM (inactive); in the test with HCT-116, > 100 µM (inactive); in the test on HCT-15, above 100 µM; in the test on HL-60, > 100 µM (inactive); with HOP-92, > 100 µM (inactive). Also, the GI50 in the test with Malme-3M, in the test on OVCAR-3, in the test on OVCAR-4, in the test on OVCAR-5, in the test with SF-295 and in the test with SK-MEL-28 was > 100 µM (inactive) each time. For the same molecule, the GI50 in the test with SN12C, with SNB-19, with SR, with UACC-257, in the test with UACC-62 and in the test with UO-31 was > 100 µM (inactive) in each case.
In the case of `CCOC(=O)C1(Br)S(=O)(=O)OCCOS1(=O)=O`, the GI50 in the test on 786-0 is > 100 µM (inactive); with A498, > 100 µM (inactive); with HCT-116, > 100 µM (inactive); with HCT-15, above 100 µM; in the test with HL-60, > 100 µM (inactive); with HOP-92, > 100 µM (inactive). In addition, the GI50 with Malme-3M, in the test on OVCAR-3, in the test on OVCAR-4, with OVCAR-5, in the test on SF-295 and in the test on SK-MEL-28 was > 100 µM (inactive) each time. Further, the GI50 with SN12C, in the test with SNB-19, with SR, in the test on UACC-257, in the test with UACC-62 and in the test with UO-31 was > 100 µM (inactive) each time.
For the molecule `Cc1cccc(C)c1N1C(=O)C(=O)C(c2nc3ccccc3s2)/C(=N/NC(=O)c2ccccc2O)C1=O` (stereo not drawn), the GI50 was 13.2 µM (inactive) in the test on 786-0; 28.6 µM (inactive) in the test with A498; 10.3 µM (inactive) with HCT-116; 14.7 µM in the test with HCT-15; 12.5 µM (inactive) with HL-60; 15.7 µM (inactive) with HOP-92. In addition, the GI50 in the test with Malme-3M is 33 µM (inactive); with OVCAR-3, 18.7 µM (inactive); in the test with OVCAR-4, 16.8 µM (inactive); in the test on OVCAR-5 it was 36.9 µM (inactive); with SF-295, 33.3 µM (inactive); with SK-MEL-28, 28 µM (inactive). For the same molecule, the GI50 in the test on SN12C was 18.4 µM (inactive); in the test with SNB-19, 10.7 µM (inactive); with SR it was 8.45 µM (inactive); in the test with UACC-257 it was 23.3 µM (inactive); in the test with UACC-62, 2.08 µM (inactive); in the test on UO-31, 4.78 µM (inactive).
As for `C=C1C(=O)[C@@]23CC[C@H]4[C@@](C)(CCC[C@@]4(C)C(=O)OC)[C@@H]2CC[C@]1(O)C3`, the GI50 with A498 was 1.71 µM (inactive); in the test on HCT-116, 0.953 µM (active); in the test on HCT-15, 1.26 µM; in the test with HL-60, 0.301 µM (active); in the test with HOP-92, 1.78 µM (inactive); in the test on MCF7 it was 2.12 µM (inactive). Also, the GI50 in the test on OVCAR-3 was 1.84 µM (inactive); with OVCAR-4, 1.89 µM (inactive); with OVCAR-5 it was 2.02 µM (inactive); in the test on SF-295 it was 5.82 µM (inactive); in the test with SK-MEL-28, 1.84 µM (inactive); in the test with SN12C, 1.77 µM (inactive). Moreover, the GI50 is 13 µM (inactive) in the test on SNB-19, 1.72 µM (inactive) with UACC-257, 1.6 µM (inactive) with UACC-62 and 2.32 µM (inactive) with UO-31.
For `CCCCCCCCCCCCCCCC(=O)N[C@H]1CCc2cc(OC)c(OC)c(OC)c2-c2ccc(SC)c(=O)cc21`, the GI50 is 2.36 µM (inactive) with 786-0; 0.692 µM (active) with A498; 0.338 µM (active) in the test with HCT-116; 1.15 µM in the test on HCT-15; 0.279 µM (active) in the test on HL-60; 0.891 µM (active) in the test with HOP-92. The GI50 in the test with Malme-3M is 0.762 µM (active); in the test with OVCAR-3, 0.225 µM (active); in the test on OVCAR-4 it was 3.24 µM (inactive); with OVCAR-5, 15.2 µM (inactive); in the test on SF-295, 0.664 µM (active); with SK-MEL-28, 0.782 µM (active). Moreover, the GI50 in the test on SN12C was 0.649 µM (active); in the test with SNB-19 it was 0.973 µM (active); in the test with SR, 0.258 µM (active); with UACC-257, 0.527 µM (active); in the test on UACC-62, 0.601 µM (active); in the test on UO-31, 3.52 µM (inactive).
Take `O=C1Cc2c([nH]c3ccc(Br)cc23)-c2cc(Br)ccc2N1`: the GI50 in the test on 786-0 was > 100 µM (inactive); with A498, > 100 µM (inactive); in the test with HCT-15, above 100 µM; with HOP-92, > 100 µM (inactive); in the test on MCF7, > 100 µM (inactive); in the test with OVCAR-4, > 100 µM (inactive). Also, the GI50 with OVCAR-5, in the test with SF-295, in the test with SK-MEL-28, with SNB-19, in the test with UACC-257 and with UACC-62 was > 100 µM (inactive) in each case. Moreover, the GI50 with UO-31 is > 100 µM (inactive).
